According to PubChem BioAssay (NCI):
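Here, GI50 denotes the concentration required for 50% inhibition of growth. TGI is the concentration that stops growth completely.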

Experiments:
Assay in all cases: NCI-60 cell line screen, 384-well format
786-0 renal = test system: 786-0 renal
A498 renal = test system: A498 renal
A549 NSCLC = test system: A549 NSCLC
ACHN renal = test system: ACHN renal
BT-549 breast = test system: BT-549 breast
CAKI-1 renal = test system: CAKI-1 renal
CCRF-CEM leukemia = test system: CCRF-CEM leukemia
COLO 205 colon = test system: COLO 205 colon
DU-145 prostate = test system: DU-145 prostate
EKVX NSCLC = test system: EKVX NSCLC
HCC-2998 colon = test system: HCC-2998 colon
HCT-15 colon = test system: HCT-15 colon
HL-60(TB) leukemia = test system: HL-60(TB) leukemia
HOP-62 NSCLC = test system: HOP-62 NSCLC
HOP-92 NSCLC = test system: HOP-92 NSCLC
HS 578T breast = test system: HS 578T breast
HT29 colon = test system: HT29 colon
IGROV1 ovarian = test system: IGROV1 ovarian
K-562 leukemia = test system: K-562 leukemia
KM12 colon = test system: KM12 colon
LOX IMVI melanoma = test system: LOX IMVI melanoma
M14 melanoma = test system: M14 melanoma
MALME-3M melanoma = test system: MALME-3M melanoma
MCF7 breast = test system: MCF7 breast
MDA-MB-231 breast = test system: MDA-MB-231 breast
MDA-MB-435 melanoma = test system: MDA-MB-435 melanoma
MDA-MB-468 breast = test system: MDA-MB-468 breast
MOLT-4 leukemia = test system: MOLT-4 leukemia
NCI-H226 lung = test system: NCI-H226 lung
NCI-H23 lung = test system: NCI-H23 lung
NCI-H322M lung = test system: NCI-H322M lung
NCI-H460 NSCLC = test system: NCI-H460 NSCLC
NCI-H522 lung = test system: NCI-H522 lung
NCI/ADR-RES ovarian = test system: NCI/ADR-RES ovarian
OVCAR-3 ovarian = test system: OVCAR-3 ovarian
OVCAR-4 ovarian = test system: OVCAR-4 ovarian
OVCAR-5 ovarian = test system: OVCAR-5 ovarian
OVCAR-8 ovarian = test system: OVCAR-8 ovarian
PC-3 prostate = test system: PC-3 prostate
RPMI-8226 leukemia = test system: RPMI-8226 leukemia
RXF 393 renal = test system: RXF 393 renal
SF-268 CNS = test system: SF-268 CNS
SF-295 CNS = test system: SF-295 CNS
SF-539 CNS = test system: SF-539 CNS
SK-MEL-28 melanoma = test system: SK-MEL-28 melanoma
SK-MEL-5 melanoma = test system: SK-MEL-5 melanoma
SK-OV-3 ovarian = test system: SK-OV-3 ovarian
SN12C renal = test system: SN12C renal
SNB-19 CNS = test system: SNB-19 CNS
SNB-75 CNS = test system: SNB-75 CNS
SR leukemia = test system: SR leukemia
SW-620 colon = test system: SW-620 colon
T-47D breast = test system: T-47D breast
TK-10 renal = test system: TK-10 renal
U251 glioblastoma = test system: U251 glioblastoma
UACC-257 melanoma = test system: UACC-257 melanoma
UACC-62 melanoma = test system: UACC-62 melanoma
UO-31 renal = test system: UO-31 renal

## CSc1nc(N)cc(Oc2ccc(-c3nc(Nc4cccc(C(F)(F)F)c4)n[nH]3)cc2)n1
786-0 renal
  GI50: 368 nM
  TGI: 1590 nM
A498 renal
  GI50: 421 nM
  TGI: 1920 nM
A549 NSCLC
  GI50: 625 nM
  TGI: 5520 nM
ACHN renal
  GI50: 618 nM
  TGI: 2730 nM
BT-549 breast
  GI50: 385 nM
  TGI: 1620 nM
CAKI-1 renal
  GI50: 548 nM
  TGI: 5090 nM
CCRF-CEM leukemia
  GI50: 175 nM
  TGI: 322 nM
COLO 205 colon
  GI50: 489 nM
  TGI: 4120 nM
DU-145 prostate
  GI50: 998 nM
  TGI: 4080 nM
EKVX NSCLC
  GI50: 599 nM
  TGI: 4320 nM
HCC-2998 colon
  GI50: 367 nM
  TGI: 1500 nM
HCT-15 colon
  GI50: 400 nM
  TGI: 1450 nM
HL-60(TB) leukemia
  GI50: 180 nM
  TGI: 325 nM
HOP-62 NSCLC
  GI50: 452 nM
  TGI: 2190 nM
HOP-92 NSCLC
  GI50: 569 nM
  TGI: 3250 nM
HS 578T breast
  GI50: 191 nM
  TGI: 423 nM
HT29 colon
  GI50: 354 nM
  TGI: 1430 nM
IGROV1 ovarian
  GI50: 676 nM
  TGI: 3530 nM
K-562 leukemia
  GI50: 320 nM
  TGI: 968 nM
KM12 colon
  GI50: 425 nM
  TGI: 1850 nM
LOX IMVI melanoma
  GI50: 523 nM
  TGI: 1790 nM
M14 melanoma
  GI50: 323 nM
  TGI: 1210 nM
MALME-3M melanoma
  GI50: 315 nM
  TGI: 1000 nM
MCF7 breast
  GI50: 317 nM
  TGI: 1840 nM
MDA-MB-231 breast
  GI50: 487 nM
  TGI: 10000 nM
MDA-MB-435 melanoma
  GI50: 208 nM
  TGI: 437 nM
MDA-MB-468 breast
  GI50: 202 nM
  TGI: 414 nM
MOLT-4 leukemia
  GI50: 187 nM
  TGI: 337 nM
NCI-H226 lung
  GI50: 1070 nM
  TGI: 3630 nM
NCI-H23 lung
  GI50: 352 nM
  TGI: 1940 nM
NCI-H322M lung
  GI50: 1850 nM
  TGI: 6780 nM
NCI-H460 NSCLC
  GI50: 280 nM
  TGI: 756 nM
NCI-H522 lung
  GI50: 241 nM
  TGI: 625 nM
NCI/ADR-RES ovarian
  GI50: 676 nM
  TGI: 2390 nM
OVCAR-3 ovarian
  GI50: 229 nM
  TGI: 492 nM
OVCAR-4 ovarian
  GI50: 457 nM
  TGI: 2210 nM
OVCAR-5 ovarian
  GI50: 2020 nM
  TGI: 6290 nM
OVCAR-8 ovarian
  GI50: 645 nM
  TGI: 2460 nM
PC-3 prostate
  GI50: 611 nM
  TGI: 3090 nM
RPMI-8226 leukemia
  GI50: 179 nM
  TGI: 368 nM
RXF 393 renal
  GI50: 326 nM
  TGI: 1030 nM
SF-268 CNS
  GI50: 463 nM
  TGI: 2520 nM
SF-295 CNS
  GI50: 458 nM
  TGI: 1900 nM
SF-539 CNS
  GI50: 349 nM
  TGI: 1350 nM
SK-MEL-28 melanoma
  GI50: 582 nM
  TGI: 3640 nM
SK-MEL-5 melanoma
  GI50: 237 nM
  TGI: 550 nM
SK-OV-3 ovarian
  GI50: 394 nM
  TGI: 2220 nM
SN12C renal
  GI50: 671 nM
  TGI: 5100 nM
SNB-19 CNS
  GI50: 637 nM
  TGI: 5170 nM
SNB-75 CNS
  GI50: 340 nM
  TGI: 1970 nM
SR leukemia
  GI50: 174 nM
  TGI: 333 nM
SW-620 colon
  GI50: 431 nM
  TGI: 6370 nM
T-47D breast
  GI50: 294 nM
  TGI: 16900 nM
TK-10 renal
  GI50: 1510 nM
  TGI: 6940 nM
U251 glioblastoma
  GI50: 581 nM
  TGI: 2110 nM
UACC-257 melanoma
  GI50: 284 nM
  TGI: 902 nM
UACC-62 melanoma
  GI50: 377 nM
  TGI: 2860 nM
UO-31 renal
  GI50: 502 nM
  TGI: 14300 nM
